From US6395526B1, “DNA polymerase” (Takara Shuzo Co., Ltd., priority 1995, dated 2002)
“Also recorded” adds a separate entry of the source.

Key:
Type in all cases: biochemical
M13-HT Primer = test: Primer extension reaction (autoradiogram, FIG. 6); conditions: for inhibition of primer extension by activated DNA as competitor substrate: activated DNA added in great excess
Description: The primer extension activity was further investigated extensively. The M13-HT Primer, previously labeled with [γ-^32P]-ATP (manufactured by Amersham) and T4 polynucleotide kinase (manufactured by Takara Shuzo Co., Ltd.) at the 5′-end, was used as a substrate. Ten microliters of a reaction mixture [20 mM Tris-HCl (pH 7.7), 15 mM MgCl2, 2 mM 2-mercaptoethanol, 270 μM each of dATP, dGTP, dCTP and dTTP] containing the above substrate in a final concentration of […] and various DNA polymerases in amounts providing 0.05 units of activity as assayed with the activated DNA as a substrate was reacted at 75° C. for 1, 2, 3, or 4 minutes. After termination of the reaction, 2 μl of a reaction stop solution (95% […], 20 mM EDTA, 0.05% bromophenol blue, 0.05% xylenecyanol) was added, subjected to thermal denaturation treatment at 95° C. for 3 minutes. Two microliters of the reaction mixture was then subjected to electrophoresis using polyacrylamide gel containing 8 M urea and subsequently subjected to a preparation of autoradiogram. Also, in order to examine the extension activity in the presence of the activated DNA as a competitor substrate, the activated DNA was added to the above reaction mixture to a final concentration of […], and subjected to a preparation of an autoradiogram by the same procedures as described above.
In the figure, Pol, Pfu, and Taq show the results for the DNA polymerase of the present invention, the Pfu DNA polymerase and the Taq DNA polymerase, respectively. In addition, 1, 2, 3, and 4 each indicates reaction time (min). In the figure, the representation “−” and “+” show the results obtained in the absence and in the presence, respectively, of the activated DNA. The lanes G, A, T, and C at the left end of the figure also show the results of electrophoresis of the reaction products obtained by a chain termination reaction by the dideoxy method using the same substrate as above, which were used to estimate the length of each extension product.

[1] = test system: gapped duplex plasmid (pUC118 vector); test: Accuracy of DNA synthesis reaction (white colony formation); conditions: 0.5 units DNA polymerase, 70° C. for 10 minutes
Description: The accuracy of DNA synthesis reaction by DNA polymerases was examined using a pUC118 vector (manufactured by Takara Shuzo Co., Ltd.), partially made single stranded (gapped duplex plasmid, as a template. The single stranded pUC118 vector was prepared by the method described in Molecular Cloning: A Laboratory Manual, 2nd ed., 4.44-4.48, published by Cold Spring Harbor Laboratory in 1989, edited by T. Maniatis et al., using a helper phage M13KO7 (manufactured by Takara Shuzo Co., Ltd.) with Escherichia coli MV1184 (manufactured by Takara Shuzo Co., Ltd.) as a host. The double stranded DNA was prepared by digesting the pUC118 vector with PvuII (manufactured by Takara Shuzo Co., Ltd.), subjecting the digested vector to agarose gel electrophoresis, and recovering a DNA fragment of about 2.8 kbp.
One microgram of the above single stranded DNA and 2 μg of the double stranded DNA were mixed to make 180 μl of a mixture with sterile distilled water, and the solution was then incubated at 70° C. for 10 minutes. Thereafter, twenty microliters of 20×SSC was added to the resulting mixture, and the mixture was further kept standing at 60° C. for 10 minutes. The DNA was recovered by subjecting to ethanol precipitation. […] The white or blue colonies formed on the plate were counted, and the formation rate of white colonies which were resulted from a DNA synthesis error was calculated.

λ-DNA = test: PCR with λ-DNA as a template
Description: In order to compare the performance of the DNA polymerase of the present invention in PCR with that of the Taq DNA polymerase, PCR was carried out with λ-DNA as a template. The reaction mixture for the DNA polymerase of the present invention had the following composition: 10 mM Tris-HCl (pH 9.2), 3.5 mM MgCl2, 75 mM KCl, 400 μM each of dATP, dCTP, dGTP and dTTP, 0.01% bovine serum albumin (BSA), and 0.1% Triton X-100. The reaction solution for the Taq DNA polymerase had the following composition: 10 mM Tris-HCl (pH 8.3), 1.5 mM MgCl2, 50 mM KCl, and 400 μM each of dATP, dCTP, dGTP and dTTP. Fifty microliters of a reaction mixture containing 5.0 ng/50 μl λ-DNA (manufactured by Takara Shuzo Co., Ltd.), 10 pmol/50 μl each of primer λ1 and primer λ11, and 3.7 units/50 μl DNA polymerase was prepared. The base sequences of the primer λ1 and the primer λ11 are shown by SEQ ID NO:8 and SEQ ID NO:9 in Sequence Listing, respectively. After, a 30-cycle PCR was carried out with the above reaction mixture, wherein one cycle is defined at 98° C. for 10 seconds and at 68° C. for 10 seconds. Five microliters of the reaction mixture was subjected to agarose gel electrophoresis, and the amplified DNA fragment was confirmed by staining with ethidium bromide.
The experiment was then carried out by changing the primer to the primer λ1 and the primer λ10. The base sequence of the primer λ10 is shown by SEQ ID NO:10 in Sequence Listing. Twenty-five microliters of a reaction mixture having a similar composition to that shown above and containing 2.5 ng of λ-DNA, 10 pmol of the primer λ1 and the primer λ10, respectively, and 3.7 units of DNA polymerase was prepared. The reaction mixture was reacted in 5 cycles under the same reaction conditions as those described above, and 5 μl of the reaction mixture was subjected to agarose gel electrophoresis and stained with ethidium bromide.

[2] = primer λ1 and primer λ10, 5 cycles

Row | Substance | primer extension activity (M13-HT Primer; M13-HT Primer, 75° C., 1-4 min, compared with Pfu and Taq DNA polymerases) | inhibition of primer extension by activated DNA as competitor substrate (M13-HT Primer) | white colony formation rate (DNA synthesis error) [1] | length of DNA fragment amplified by PCR (λ-DNA; [2]) | length of DNA fragment amplified by PCR (λ-DNA; primer λ1 and primer λ11, 30 cycles, enzyme used alone)
1 | DNA Polymerase of the Present Invention: complex of first (ORF3, SEQ ID NO:2) and second (ORF4, SEQ ID NO:4) DNA polymerase-constituting proteins from Pyrococcus furiosus | superior primer extension activity | unlikely to be inhibited; also recorded: inhibited at a low level | 1.61% | about 15 kbp | –
2 | Taq DNA Polymerase: Taq DNA polymerase derived from Thermus aquaticus (TaKaRa Taq, manufactured by Takara Shuzo Co., Ltd.) [reference compound] | – | markedly inhibited; also recorded: strongly inhibited | 3.18% | no specific amplification was observed | not found
